Measurements from article PMC9404711 (Antibiotics, 2022).
Like-named read-outs stand apart in the source and are kept apart here. Non-standard residues stand in square brackets, D forms with d. Residues, ends and D or L forms follow the SMILES beside them.

How the values were obtained:
[1] = test system: A. baumannii (ATCC 19606); assay type: cell-based, Acinetobacter baumannii; details: A. baumannii ATCC 19606, MHB-II, 37 °C, 18–24 h, triplicate
How it was run: (§1)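 Broth microdilution in cation-adjusted Mueller-Hinton broth with a final inoculum of 5 × 10^5 CFU/mL, incubated 18–24 h at 37 °C, run in triplicate. Peptide stocks were 10 mg/mL in water; colistin and vancomycin served as positive controls.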

S. aureus (ATCC 29213) = test: MIC determination, broth microdilution; assay type: cell-based, Staphylococcus aureus; details: S. aureus ATCC 29213, MHB-II, 37 °C, 18–24 h, triplicate
How it was run: as §1

[2] = test system: colistin-susceptible strain A. baumannii ATCC 19606; details: at 4 × MIC and above; cited from earlier work
[3] = test system: P. aeruginosa (ATCC 27853); assay type: cell-based, Pseudomonas aeruginosa; details: P. aeruginosa ATCC 27853, MHB-II, 37 °C, 18–24 h, triplicate
How it was run: as §1

[4] = Hydrophobicity by analytical RP-HPLC (%B at elution); assay type: physicochemical; details: chromatographic, analytical reversed-phase HPLC, Waters Symmetry C18 5 μm 4.6 × 250 mm; A: H2O + 0.1% TFA, B: 90:10 ACN-H2O + 0.1% TFA
[5] = test system: K. pneumoniae (ATCC 13883); assay type: cell-based, Klebsiella pneumoniae; details: K. pneumoniae ATCC 13883, MHB-II, 37 °C, 18–24 h, triplicate
How it was run: as §1

E. coli (ATCC 25922) = assay type: cell-based, Escherichia coli; details: E. coli ATCC 25922, MHB-II, 37 °C, 18–24 h, triplicate
How it was run: as §1

E. coli = test: Time-kill assay; assay type: cell-based, Escherichia coli; details: start 5 × 10^5 CFU/mL, MHB-II 37 °C, n = 3
Protocol: The limit of detection was set to 10 CFU/mL, corresponding to a single viable colony after the overnight incubation of 100 μL bacteria suspension on an agar plate.
An overnight culture (MHB-II media) of E. coli was diluted 1:100 in preheated MHB-II, placed in a water bath (37 °C), and allowed to grow until OD600 = 0.2–0.4 was reached. The bacterial suspension was then diluted 1:10 in 25 mL preheated MHB-II, placed in a water bath (37 °C), and then allowed to grow until an OD = 0.2 was reached. […] At time points 0, 1, 3, 5, and 24 h, 250 μL of each sample suspension were transferred to a 0.9 % saline solution in a 1-mL Eppendorf tube. The bacterial cells were washed twice in 0.9% saline, spun down (10,000× g for 5 min) and resuspended in 250 μL 0.9% saline. Then, 10-fold dilution series were prepared and aliquots of 10 μL were spotted onto LB Agar. In addition, 100 μL of undiluted bacterial suspension (except the control sample) was plated out on a separate LB plate. All of the plates were incubated (37 °C) overnight and the results were read after incubation.

human erythrocytes = details: 150 μM peptide; 0.5% (v/v) red blood cell suspension in PBS, 1 h at 37 °C, absorbance 414 nm; melittin positive control, PBS negative control; three wells
Protocol: PBS served as the negative control and 5 μM melittin served as the positive control. All melittin solutions were prepared in Protein LoBind Eppendorf tubes to prevent the adsorption of melittin to the inner surface of the tubes.
Preparation of peptide solutions and melittin: A 5 μM melittin solution in PBS was prepared the day before the hemolysis experiment. First, 150 μL of this solution was transferred to each of the positive control wells and stored in the fume hood to coat the wells. On the day of the experiment, the melittin solution was discarded and the wells were washed with 3 × PBS. A 2.5 μM melittin solution in PBS was prepared and 75 μL was transferred to the wells. PBS (150 μL) was used as the negative control. A solution of each peptide was prepared by dissolving the peptide in 0.5 mL PBS to obtain a concentration of 300 μM. Each peptide solution (150 μL) was transferred to the wells in three wells each in row A, and the plate was diluted down.
Preparation of the red blood cell suspension: 1 mL of type O- whole blood in citrate was transferred to a cryotube. The whole blood was washed with 3 × PBS; adding 3, 3, and 4 mL of PBS, respectively. In between, the blood was centrifuged for 8 min (3000, 3000, and 4000 rpm, respectively) and the supernatant was removed after each centrifugation. A 0.5% (v/v) blood suspension was prepared by adding 40 μL of the washed blood cells to 8 mL of PBS. Then, 75 μL of the red blood cell suspension was transferred to each well and mixed gently. The plate was sealed and incubated for 1 h at 37 °C. After incubation, the plate was centrifuged at 4000 rpm for 10 min. Afterwards, 60 μL of the supernatant from each well was quickly transferred to an ELISA plate.
The absorbance was determined at 414 nm, and Equation (1) below was used to calculate the hemolytic activity of the peptides.

Structure (SMILES)	MIC AB ([1]; inoculum 5 × 10^5 CFU/mL) [µg/mL]	MIC AB ([1]; value in brackets) [µM]	MIC SA (S. aureus (ATCC 29213); inoculum 5 × 10^5 CFU/mL) [µg/mL]	MIC SA (S. aureus (ATCC 29213); value in brackets) [µM]	number of CFU in time-kill [2]	MIC PA ([3]; inoculum 5 × 10^5 CFU/mL) [µg/mL]	MIC PA ([3]; value in brackets) [µM]	%B (hydrophobicity: percentage of mobile phase B at the peak elution time) [4] [%B]	MIC KP ([5]; inoculum 5 × 10^5 CFU/mL) [µg/mL]	MIC KP ([5]; value in brackets) [µM]	MIC EC (E. coli (ATCC 25922); inoculum 5 × 10^5 CFU/mL) [µg/mL]	MIC EC (E. coli (ATCC 25922); value in brackets) [µM]	viable cells after 24 h (E. coli; 3 × MIC (12 μg/mL))	viable cells after 24 h (E. coli; 5 × MIC (20 μg/mL))	% hemolysis of human erythrocytes (human erythrocytes) [%]
CC[C@@H](C)[C@@H](NC(=O)[C@@H](CCCCN)NC(=O)[C@@H](CCCCN)NC(=O)[C@@H](Cc1ccccc1)NC(=O)[C@@H](CC(C)C)NC(=O)[C@@H](CCCCN)NC(=O)[C@H](N)CCCCN)C(=O)N[C@H](CC(C)C)C(=O)N[C@H](CCCNC(=N)N)C(=O)N[C@H](Cc1ccc(O)cc1)C(=O)N[C@H](CC(C)C)C(N)=O [BP214, reference compound] (H-[dK][dK][dL][dF][dK][dK][dI][dL][dR][dY][dL]-NH2; N-terminus assumed)	2	1.4	8	5.5	below the detection level	4	2.8	50.8	2	1.4	4	2.8			
CCCCCCCCCC(=O)N[C@H](CCCCN)C(=O)N[C@H](CCCCN)C(=O)N[C@H](CC(C)C)C(=O)N[C@H](Cc1ccccc1)C(=O)N[C@H](CCCCN)C(=O)N[C@H](CCCCN)C(=O)N[C@@H](C(=O)N1CCCC[C@H](C(N)=O)NC(=O)[C@@H](Cc2ccc(O)cc2)NC(=O)[C@@H](CCCNC(=N)N)NC(=O)[C@@H](CC(C)C)NC(=O)C1)[C@H](C)CC [compound 13]	2	1.2	8	4.8		8	4.8	60.9	16	9.6	4	2.4	10^3 CFU/mL	10^2 CFU/mL	
CCCCCCCCCC(=O)N[C@H](CCCCN)C(=O)N[C@H](CCCCN)C(=O)N[C@H](CC(C)C)C(=O)N[C@H](Cc1ccccc1)C(=O)N[C@H](CCCCN)C(=O)N[C@H](CCCCN)C(=O)N1CCCC[C@H](C(N)=O)NC(=O)[C@@H](Cc2ccc(O)cc2)NC(=O)[C@@H](CCCNC(=N)N)NC(=O)[C@@H](CC(C)C)NC(=O)[C@@H]([C@H](C)CC)NC(=O)C1 [compound 16]	4	2.4	4	2.4		8	4.8	61.3	16	9.7	8	4.8			59
